The source of these data is patent publication US20250368687A1, “SHORT SYNTHETIC PEPTIDES AND USES THEREOF IN THE TREATMENT OF ENTEROVIRUS INFECTION” (CITY UNIVERSITY OF HONG KONG, priority 2024, published 2025).

The test system of experiment [1] is Hsp27 and hnRNP A1 redistribution in RD cells. Put plainly: Immunofluorescence colocalization assay of Hsp27/hnRNP A1 redistribution, RD cells with or without EV-A71 infection. In kind it is cell-based. To be noted: for redistribution of Hsp27 and hnRNP A1 in EV-A71-infected RD cells / localization of Hsp27 and hnRNP A1 in mock RD cells: 25 μM for 2h; for redistribution of Hsp27 and hnRNP A1 in EV-A71-infected RD cells: EV-A71 MOI 40 for 6h; for localization of Hsp27 and hnRNP A1 in mock RD cells: without EV-A71; for fraction of Hsp27 overlapping DAPI (M1 colocalization coefficient): EV-A71-infected RD cells. On the procedure:
The cells on coverslips were infected with EV-A71 at the multiplicity of infection (MOI) of 40 for 6 hrs to assure the high efficiency of viral infection. Then the cells were fixed by 4% paraformaldehyde for 20 min, permeabilized by 0.5% Triton X-100 for 15 min, blocked with 5% BSA for 2 hrs, and stained by incubation with anti-Hsp27 (GTX101145) and anti-hnRNP A1 (sc-32301) antibody, then with Alexa Fluor 488 conjugated anti-rabbit antibody and Alexa Fluor 594 conjugated anti-mouse antibody respectively. After washing four times with 0.2% Triton X-100, the nuclei were stained with DAPI or Hoechst for 5 min. The images were captured by a Nikon A1HD25 High speed and Large Field of View Confocal Microscope. Colocalization analysis was conducted using the JACoP-plugin of the extended ImageJ version Fiji. The M1 colocalization coefficient was computed to illustrate the colocalization levels of Hsp27 and hnRNP A1 overlapped with Hoechst.
Hsp27 is predominantly located in the cytoplasm, however, stress (e.g., heat shock, virus infection) can induce partial redistribution of Hsp27 from the cytoplasm to the nucleus, concomitantly with its phosphorylation. We thus postulated that the cellular redistribution of Hsp27 may be associated with its phosphorylation upon EV-A71 infection. To verify the hypothesis, RD cells were with SB203580 at 0, 2, 4, and 8 μM for 2 h, and the cells were infected with EV-A71 for 6 h. […] The colocalization of Hsp27 and DAPI, which stands for the level of redistribution of Hsp27, was also quantified. The colocalization coefficient M1 was computed as the fraction of Hsp27 colocalized with DAPI in the total Hsp27 area using the JACoP-plugin in FIJI.
We hypothesized that peptides S78 and S82A could interfere with Ser78 phosphorylation while peptides S78A (Ser78 replaced by Ala78) would not affect the phosphorylation of Ser78 of Hsp27. […] RD cells were pre-treated with peptide S78, S78A or S82A at the concentrations of 25 μM for 2h and then infected with or without EV-A71 at an MOI of 40 for 6h.

The test system of experiment [2] is Hsp27 phosphorylation on Ser 15, 78, 82. As to the kind of experiment: Western blot of Hsp27 phosphorylation in EV-A71-infected RD cells. In kind it is cell-based. The note with it: for inhibition of Hsp27 Ser78 phosphorylation: peptide pre-treatment 2 hours. On the procedure: RD cells were treated with SB203580 at indicated concentration for 2 hours, then infected with EV-A71 at the MOI of 10 for 6 hours. Cell lysates were collected for western blot assay. Hsp27 phosphorylation on Ser 15, 78, 82 were detected by specific antibodies. GAPDH were detected as internal control.
FIGS. 10A-10K. […] (FIG. 10A) RD cells were pre-treated with peptides S78 or for 2 hours and infected with EV-A71 at the MOI of 10 for 6 hours. Cell lysates were collected for western blot assay. Hsp27 phosphorylation on Ser 15, 78, 82 were detected by specific antibodies. β-Actin were detected as internal control. (FIG. 10B) Densitometric analysis of FIG. 9A. (FIG. 10C) HEK 293T cells were pre-treated with peptides S78 or S78A at the concentration of 25 μM for 2 hours and then co-transfected with Hsp27-WT plasmid (800 ng), pIRES reporter plasmid (200 ng) and 2A^pro-expressing plasmid or 2AC110A-expressing plasmid (200 ng) for 24 h, then the luciferase activity was measured. (FIG. 10D-10E) RD cells were treated with peptides S78 or S78A and then infected with EV-A71. EV-A71 VP1 were detected. (FIG. 10F) RD cells were treated with peptides and then infected with EV-A71 at the MOI of 1 for 12 hours. The EV-A71-induced CPE was captured. (FIG. 10G-10H) Intracellular viral RNA was extracted and quantified by qPCR. (FIG. 10I) Densitometric analysis FIG. 9D-E. (FIG. 10J) RD cells were treated with peptides S78 or and then infected with EV-A71 at the MOI of 1 for 12 hours. Extracellular viral RNA was extracted and quantified by qPCR. (FIG. 10K) Viral titration was calculated by TCID50. The Statistical analyses were carried out using Student's t-test. *: p<0.05, **: p<0.01, ***: p<0.001. Data are expressed as mean ±SD.
After cell lysis in Nonidet-P40 (NP-40) buffer, the cell lysates were centrifuged, and the concentration was determined by Bradford assay (Bio-Rad). 20 μg of protein was used for 12% SDS-PAGE and transferred onto polyvinylidene fluoride membrane (PVDF) (GE, MA, USA). Following 5% bovine serum albumin (BSA) blocking for 1 hrs, the membrane was incubated with antibodies (1:1000) against Hsp27 (sc-13132), pHsp27-Ser15 (ab76313), pHsp27-Ser78 (ADI-SPA-523), pHsp27-Ser82 (ab155987), VP1 (GTX132339), β-Actin (sc-47778), hnRNP A1 (sc-32301), or GAPDH (sc-32233) overnight in 4° C. After secondary antibodies (HRP-conjugated Affinipure Goat Anti-Mouse IgG(H+L), SA00001-1, and HRP-conjugated Affinipure Goat Anti-Rabbit IgG(H+L), SA00001-2) incubation for 1 hrs, the protein was visualized with a chemiluminescence reagent (PerkinElmer, MA, USA) on Bio-Rad Chemidoc Imaging System. The protein bands were quantified by densitometry with ImageJ if necessary.
In this example, the effect of EV-A71 infection on Hsp27 phosphorylation was investigated. […] Then, the phosphorylation status of Hsp27 upon virus infection under the treatment with a p38 inhibitor was examined, as the phosphorylation of Hsp27 could be resulted from p38 signaling activation. To this purpose, the cells were first treated with p38 kinase inhibitor −SB203580 at different concentrations (0, 0.25, 0.5, 1, 2, 4, and 8 μM) and the phosphorylation level of Hsp27 upon EV-A71 infection was examined by western blot assay.
For orientation: In western blotting, separated proteins are transferred to a membrane and probed.

[3] abbreviates: EV-A71 MOI 10 for 6 hours, RD cells.
The mark [4] stands for this setting: SB203580 0-8 μM for 2 hours, EV-A71 MOI 10 for 6 hours, RD cells.

In the case of “Ac-RKKRRQRRRYSREANQPKPSPKRESGEE-NH2 [NC, reference compound]”, the “redistribution of Hsp27 and hnRNP A1 in EV-A71-infected RD cells” value (from here on “redistribution of Hsp27 and hnRNP A1”) in experiment [1] is recorded as “did not affect”.
Regarding Ac-RKKRRQRRRAYSRALSRQLSS-NH2 [S78], the “inhibition of Hsp27 Ser78 phosphorylation” value in experiment [2] (setting [3]) is on record as “dramatically inhibited”. In addition, in experiment [1], the “redistribution of Hsp27 and hnRNP A1” value was “dramatically blocked”; the “localization of Hsp27 and hnRNP A1 in mock RD cells” value is on record as “not affected”.
For `C[S+]([O-])c1ccc(-c2nc(-c3ccncc3)c(-c3ccc(F)cc3)[nH]2)cc1` (stereo not shown) [SB203580, reference compound], in experiment [2] (8 μM, EV-A71-infected RD cells), the “reduction of phosphorylation level at Ser78 (densitometry)” value is given as “over 85%”. Moreover, in experiment [2] (setting [4]), the “phosphorylation level of Hsp27 at Ser15” value is on record as “slightly decreased”, the “phosphorylation level of Hsp27 at Ser82” value is listed as “slightly decreased” and the “phosphorylation of Hsp27 at Ser78” value was “markedly suppressed in a dose-dependent manner”. The “fraction of Hsp27 overlapping DAPI (M1 colocalization coefficient)” value in experiment [1] (0, 2, 4, 8 μM) was “reduced in a dose-dependent manner”. The “nuclear Hsp27 level upon EV-A71 infection” value in experiment [1] (2 μM for 2 h, EV-A71 6 h, RD cells) is “markedly reduced”. For the same compound, the “nuclear relocation of Hsp27 upon EV-A71 infection” value in experiment [1] (4 μM for 2 h, EV-A71 6 h, RD cells) is given as “further blocked to an invisible level”. Moreover, the “fraction of Hsp27 overlapping DAPI (M1 colocalization coefficient)” value in experiment [1] (8 μM) is “reduced to the basal level”. The “Hsp27 translocation to the nucleus without EV-A71 infection” value in experiment [1] (RD cells without EV-A71 infection) was “not translocated to the nucleus”.
With Ac-RKKRRQRRRAYSRALARQLSS-NH2 [S78A], the “inhibition of Hsp27 Ser78 phosphorylation” value in experiment [2] (setting [3]) was “less inhibition”. Further, in experiment [1], the “redistribution of Hsp27 and hnRNP A1” value was “only partially reduced”; the “localization of Hsp27 and hnRNP A1 in mock RD cells” value is “not affected”.
